Laboratory results reported in patent US20260327211A1, “MODULATORS OF A POTASSIUM CHANNEL AND OF TRPV1 CHANNEL AND USES THEREOF” (Bsense Bio Therapeutics Ltd., priority 2023, published 2026).

Key:
[1] = tested on: HepG2 cells; test: HepG2 toxicity, ATPlite; format: cell-based, human; conditions: up to limit of solubility
Description: Cell culture: HepG2 cell-line cells were cultured in EMEM (ATCC 30-2033) medium supplemented with 10% fetal bovine serum (Biological Industries) in a humidified 5% CO2 incubator at 37° C.
ATPlite™ 1step Kit: ATPlite™ 1step kit (PerkinElmer) was used in a 384-wells format to assess potential liver toxicity using HepG2 cells. This is an ATP detection system based on firefly luciferase luminescence for the quantitative evaluation of proliferation and cytotoxicity of cells. ATP is a marker for cell viability because it is present in all metabolically active cells and its concentration declines very rapidly when the cells undergo necrosis or apoptosis.
According to an optimization process done to achieve uniform and consistent screening condition of molecules, the following protocol was established: Cells were seeded in 384-well, black-walled, clear-bottomed, at a density of 4000 cells per well […] and incubated overnight in their normal growth medium. On day two (48 hours before viability measurement), the tested compounds and the positive control were applied to the wells according to the plate design. […] 48 hours later, reconstituted lyophilized substrate solution was added to each well and the sealed 384-well microplate was mixed for 2 minutes at 1100 rpm in an orbital microplate and plates were incubated for 10 minutes in the dark at room temperature. Right after, luminescence was measured in the Tecan plate reader. To estimate the LD50 and LD25 values the data was fitted to sigmoidal regression using Prism-GraphPad. […]

[2] = tested on: Distal Tibial Injury (DTI) rats; test: Distal Tibial Injury (DTI) model, von Frey; format: in vivo, rat; conditions: 100 mg/kg oral, 6 hours post-dose
Description: (§1) All animal experiments were carried out according to the Guide for the Care and Use of Laboratory Animals (2011 edition) and approved by the Israel National Institutional Animal Care and Use Committee (IACUC). Young adult male SD rats (Envigo RMS, Israel), were used for in vivo efficacy: Spared Nerve Injury (SNI), Distal Tibial Injury (DTI) and Post-operative Pain (POP), 200-220 grams, Chronic Post-Ischemia Pain (CPIP) 275-325 grams, Monosodium iodoacetate-induced osteoarthritis (MIA-OA) 180-220 grams; for in vivo safety: 200-250 grams at study initiation. […] The health status of the animals used in this study was examined upon their arrival. Only animals in good health were acclimatized to laboratory conditions and were used in the studies. All studies were performed following at least five days of animal acclimation. During acclimation and throughout the entire study duration, animals were housed within a limited-access rodent facility and kept in groups with a maximum of 2-3 rats per polypropylene cage. The cages were fitted with solid bottoms and filled with sterile wood shavings as bedding material. Animals were provided ad libitum with a commercial, sterile rodent diet and had free access to drinking water that was supplied to each cage via polyethylene bottles with stainless steel sipper tubes. […] Water was monitored periodically. […]

[3] = tested on: Chronic Post-Ischemia Pain (CPIP) rats; test: Chronic Post-Ischemia Pain (CPIP) model, von Frey; format: in vivo, rat; conditions: 100 mg/kg oral, 6 hours post-dose
Description: as §1, with “material.” for “material. Animals were provided ad libitum with a commercial, sterile rodent diet and had free access to drinking water that was supplied to each cage via polyethylene bottles with stainless steel sipper tubes.”
On study day 14, the animal's response to von Frey filaments was measured. […]

[4] = target: T1, adrenergic α2A (Homo sapiens, UniProt P08913); test: Functional selectivity panel, adrenergic α2A; format: biochemical
T1 construct: Eurofins DiscoverX, USA
T1 sequence (P08913 whole entry): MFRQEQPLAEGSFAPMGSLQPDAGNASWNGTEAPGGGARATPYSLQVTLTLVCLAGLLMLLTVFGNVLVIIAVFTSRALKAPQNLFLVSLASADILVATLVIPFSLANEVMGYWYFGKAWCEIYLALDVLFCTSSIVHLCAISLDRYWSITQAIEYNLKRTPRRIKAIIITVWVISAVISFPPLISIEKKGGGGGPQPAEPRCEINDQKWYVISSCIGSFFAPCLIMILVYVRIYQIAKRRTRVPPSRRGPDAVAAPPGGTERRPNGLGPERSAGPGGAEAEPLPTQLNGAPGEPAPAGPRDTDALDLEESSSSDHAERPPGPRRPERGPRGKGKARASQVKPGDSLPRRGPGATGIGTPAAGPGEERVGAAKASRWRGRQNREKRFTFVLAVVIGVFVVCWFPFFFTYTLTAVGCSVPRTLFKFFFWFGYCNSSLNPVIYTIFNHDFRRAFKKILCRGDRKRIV
Description: (§2) A broad panel of 78 recombinant targets was tested for pharmacologic activity in vitro through a variety of functional assays (Eurofins DiscoverX, USA), as part of the National Institute of Neurological Disorders and Stroke (NINDS) Preclinical Screening Platform for Pain (PSPP) program. The biological targets for the in vitro profiling have been selected based on avoiding opioid receptor stimulation and targets known to be associated with adverse events or targeted by drugs of abuse. […] For each test, a reference compound was evaluated at the target of interest as a positive control.

[5] = tested on: Dopamine D1-D5; test: Functional screening panel, Dopamine D1-D5; format: biochemical; conditions: up to 10 micromolar
Description: as §2

[6] = target: P-gp (Homo sapiens, UniProt P08183); test: Transporter substrate, P-gp; format: in vitro ADME; conditions: role: substrate
Chain of P-gp (P08183 whole entry): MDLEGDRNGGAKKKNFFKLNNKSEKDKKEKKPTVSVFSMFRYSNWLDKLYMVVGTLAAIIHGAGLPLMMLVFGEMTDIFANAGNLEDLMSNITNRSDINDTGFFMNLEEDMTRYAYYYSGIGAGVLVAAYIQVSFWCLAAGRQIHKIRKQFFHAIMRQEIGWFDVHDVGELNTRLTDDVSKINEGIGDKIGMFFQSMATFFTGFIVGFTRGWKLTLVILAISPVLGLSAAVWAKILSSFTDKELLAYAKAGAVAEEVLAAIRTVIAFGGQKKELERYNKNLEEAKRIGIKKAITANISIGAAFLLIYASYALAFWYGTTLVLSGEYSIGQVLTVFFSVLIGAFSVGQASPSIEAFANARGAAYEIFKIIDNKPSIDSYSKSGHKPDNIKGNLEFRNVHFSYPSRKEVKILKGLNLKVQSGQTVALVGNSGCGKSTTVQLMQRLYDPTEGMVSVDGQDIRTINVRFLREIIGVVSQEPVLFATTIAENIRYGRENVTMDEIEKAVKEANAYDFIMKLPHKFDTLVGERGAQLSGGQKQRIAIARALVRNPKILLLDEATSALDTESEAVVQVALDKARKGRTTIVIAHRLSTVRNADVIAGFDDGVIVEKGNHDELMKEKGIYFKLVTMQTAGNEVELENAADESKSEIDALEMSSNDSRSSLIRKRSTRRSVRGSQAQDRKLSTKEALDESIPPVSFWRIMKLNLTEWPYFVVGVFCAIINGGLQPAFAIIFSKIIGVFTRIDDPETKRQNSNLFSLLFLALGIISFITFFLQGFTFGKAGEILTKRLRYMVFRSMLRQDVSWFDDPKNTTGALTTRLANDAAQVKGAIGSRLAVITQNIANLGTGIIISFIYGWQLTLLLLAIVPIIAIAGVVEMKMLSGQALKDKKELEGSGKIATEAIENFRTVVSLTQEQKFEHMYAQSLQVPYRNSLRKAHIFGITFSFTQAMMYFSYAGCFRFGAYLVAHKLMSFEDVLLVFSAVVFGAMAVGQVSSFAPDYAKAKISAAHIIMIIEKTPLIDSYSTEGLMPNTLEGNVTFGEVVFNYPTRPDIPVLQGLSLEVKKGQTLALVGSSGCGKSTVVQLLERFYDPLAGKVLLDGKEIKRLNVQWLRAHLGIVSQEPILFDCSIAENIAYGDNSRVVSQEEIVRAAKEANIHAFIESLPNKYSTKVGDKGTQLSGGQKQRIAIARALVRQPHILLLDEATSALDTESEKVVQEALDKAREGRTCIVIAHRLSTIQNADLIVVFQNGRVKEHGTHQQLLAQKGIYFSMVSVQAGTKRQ
Description: (§3) Additionally, compound 760 was tested for its capability to act as a transporter substrate for various transporters, and was not found to be a transporter substrate for any of the tested transporters.

[7] = tested on: BCRP; test: Transporter substrate, BCRP; format: in vitro ADME; conditions: role: substrate
Description: as §3

[8] = target: OCT1 (Homo sapiens, UniProt O15245); test: Transporter substrate, OCT1; format: in vitro ADME; conditions: role: substrate
Chain of OCT1 (O15245 whole entry): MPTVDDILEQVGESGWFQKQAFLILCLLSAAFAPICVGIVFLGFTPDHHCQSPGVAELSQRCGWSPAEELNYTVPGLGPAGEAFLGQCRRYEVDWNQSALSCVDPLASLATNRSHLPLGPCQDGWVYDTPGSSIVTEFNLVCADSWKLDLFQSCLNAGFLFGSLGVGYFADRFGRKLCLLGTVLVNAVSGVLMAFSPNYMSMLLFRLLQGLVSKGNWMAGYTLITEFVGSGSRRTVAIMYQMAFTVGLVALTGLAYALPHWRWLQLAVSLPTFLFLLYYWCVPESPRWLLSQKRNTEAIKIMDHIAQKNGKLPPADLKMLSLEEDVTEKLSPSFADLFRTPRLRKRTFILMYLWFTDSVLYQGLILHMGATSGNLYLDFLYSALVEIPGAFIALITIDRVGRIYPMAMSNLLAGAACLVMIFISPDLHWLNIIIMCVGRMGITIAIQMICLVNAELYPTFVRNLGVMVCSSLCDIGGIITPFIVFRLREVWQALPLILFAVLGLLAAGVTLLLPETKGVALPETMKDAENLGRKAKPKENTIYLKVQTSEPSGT
Description: as §3

[9] = tested on: MATE2-K; test: Transporter substrate, MATE2-K; format: in vitro ADME; conditions: role: substrate
Description: as §3

IC50 [4]	Structure (SMILES)	HepG2 toxicity [1]	Reversal of mechanical PWT [2]	Reversal of mechanical PWT [3]	Effect on Dopamine D1-D5 [5]	P-gp substrate [6]	BCRP substrate [7]	OCT1 substrate [8]	MATE2-K substrate [9]
6 µM	O=C(Cc1cncc(-n2cc(Cl)c3cc(Cl)cc(Cl)c32)c1)N[C@@H]1COC[C@H]1O [Compound 661]	no evidence of toxicity up to the compound's limit of solubility	45.9%	27.6%					
	O=C(Cc1nccc(-n2cc(Cl)c3cc(Cl)cc(Cl)c32)n1)NC1COCC1O (stereo not drawn) [Compound 760]				no effect	not a transporter substrate or a poor substrate	not a transporter substrate or a poor substrate	not a transporter substrate	not a transporter substrate
